pIC50: −log10 of the molar value.
How the values were obtained:
[1] = molecular target: T1, α4β1 integrin (Jurkat T-cell adhesion to IL-1 stimulated endothelial cell monolayers) (Homo sapiens, UniProt P05556+P13612); assay: Jurkat-Endothelial Cell Adhesion Assay (Jurkat EC); format: cell-based; details: Jurkat cells on IL-1 stimulated HUVEC monolayers
T1 construct: a T-cell line, Jurkat, known to express the α4β1 integrin; host or cells: Jurkat T-cell line
Method in brief: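 BCECF-loaded Jurkat cells (5×10^5) mixed with compound (generally 100, 20, 5 and 1.25 μM) and added to HUVEC monolayers prestimulated 4 hr with 0.1 ng/ml IL-1, in DMEM-HSA. After 5 min on ice and 20 min at 37° C, washed; fluorescence gives % adhesion relative to no-compound control set at 100%.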

[2] = molecular target: T2, α4β1 integrin (Jurkat cell adhesion to immobilized CS-1 derived peptide CLHPGEILDVPST) (Homo sapiens, UniProt P05556+P13612); assay: Jurkat-CS-1 Assay; format: cell-based; details: Jurkat cells on CS-1 peptide coated plates
T2 construct: 100 μl of Jurkat cells (2.5×10^6 cells/ml) in DMEM plus BSA; endogenous in cells; host or cells: Jurkat T-cell line
T2 sequence (P13612 34-1032): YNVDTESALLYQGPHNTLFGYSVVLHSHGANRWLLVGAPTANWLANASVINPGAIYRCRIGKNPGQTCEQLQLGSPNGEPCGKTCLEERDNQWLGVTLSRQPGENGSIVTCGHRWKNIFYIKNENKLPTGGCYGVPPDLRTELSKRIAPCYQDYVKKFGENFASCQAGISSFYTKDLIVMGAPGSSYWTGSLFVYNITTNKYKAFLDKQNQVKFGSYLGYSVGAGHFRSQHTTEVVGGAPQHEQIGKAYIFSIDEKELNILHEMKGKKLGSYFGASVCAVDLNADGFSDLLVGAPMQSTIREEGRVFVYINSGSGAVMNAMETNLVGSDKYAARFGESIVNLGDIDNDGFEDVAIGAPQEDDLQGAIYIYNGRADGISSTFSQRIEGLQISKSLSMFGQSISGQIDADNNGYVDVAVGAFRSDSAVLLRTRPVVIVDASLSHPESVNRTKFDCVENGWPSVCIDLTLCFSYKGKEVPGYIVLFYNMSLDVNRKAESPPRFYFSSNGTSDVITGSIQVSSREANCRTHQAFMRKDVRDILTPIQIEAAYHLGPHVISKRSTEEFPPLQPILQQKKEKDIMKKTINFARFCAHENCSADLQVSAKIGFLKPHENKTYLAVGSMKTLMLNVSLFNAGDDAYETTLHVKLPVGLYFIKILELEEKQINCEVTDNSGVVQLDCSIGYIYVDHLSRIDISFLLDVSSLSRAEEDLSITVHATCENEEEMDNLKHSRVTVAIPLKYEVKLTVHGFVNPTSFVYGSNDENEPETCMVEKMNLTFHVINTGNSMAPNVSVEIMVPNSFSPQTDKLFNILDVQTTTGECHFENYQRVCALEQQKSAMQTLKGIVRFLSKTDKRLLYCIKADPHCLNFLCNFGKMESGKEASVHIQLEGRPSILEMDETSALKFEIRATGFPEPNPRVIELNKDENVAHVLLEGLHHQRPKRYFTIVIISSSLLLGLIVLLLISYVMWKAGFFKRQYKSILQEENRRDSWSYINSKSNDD
T2 sequence (P05556 21-798): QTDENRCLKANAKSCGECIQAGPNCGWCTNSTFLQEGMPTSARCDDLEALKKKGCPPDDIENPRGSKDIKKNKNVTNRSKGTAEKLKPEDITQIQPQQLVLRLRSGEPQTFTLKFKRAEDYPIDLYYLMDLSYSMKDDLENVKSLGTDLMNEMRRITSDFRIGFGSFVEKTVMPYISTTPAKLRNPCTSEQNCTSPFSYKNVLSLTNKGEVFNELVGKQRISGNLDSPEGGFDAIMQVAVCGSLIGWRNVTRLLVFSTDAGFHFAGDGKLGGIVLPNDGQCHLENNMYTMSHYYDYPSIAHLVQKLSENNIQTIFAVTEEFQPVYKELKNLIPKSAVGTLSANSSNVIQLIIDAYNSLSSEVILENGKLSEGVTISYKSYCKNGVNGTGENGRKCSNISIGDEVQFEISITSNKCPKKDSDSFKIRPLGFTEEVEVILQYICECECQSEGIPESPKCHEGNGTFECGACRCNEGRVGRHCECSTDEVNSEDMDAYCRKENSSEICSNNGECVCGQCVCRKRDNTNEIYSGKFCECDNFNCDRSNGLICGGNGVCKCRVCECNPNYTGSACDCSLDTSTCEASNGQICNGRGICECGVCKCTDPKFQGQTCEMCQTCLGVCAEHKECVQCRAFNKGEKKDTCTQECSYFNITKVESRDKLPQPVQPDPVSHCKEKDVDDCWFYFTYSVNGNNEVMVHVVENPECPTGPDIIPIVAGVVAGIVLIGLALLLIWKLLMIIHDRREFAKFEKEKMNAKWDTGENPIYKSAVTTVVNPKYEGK
Method in brief: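 CS-1 peptide was SPDP-crosslinked onto HSA-coated plates and blocked with BSA. Jurkat cells (2.5×10^6 cells/ml) in DMEM/BSA were mixed with compound, generally at 100, 20, 5 and 1.25 μM, and allowed to adhere for 1 hr at 37° C. Bound cells were fixed, stained with toluidine blue and quantified by OD590.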

T1 sequence (P13612 34-1032): as the sequence (P13612 34-1032) above
T1 sequence (P05556 21-798): as the sequence (P05556 21-798) above

Compound | pIC50 [1] | melting point | pIC50 [2]
CC1(C)[C@@H](C(=O)N[C@@H](Cc2ccc(NCc3c(Cl)cccc3Cl)cc2)C(=O)O)CC[C@@]1(C)C(=O)O [Example 152] | ≥ 6.10 | 100 to 103 °C | ≥ 7.10
CC1(C)[C@@H](C(=O)N[C@@H](Cc2ccc(NC(=O)c3cc(Cl)ccc3Cl)cc2)C(=O)O)CC[C@@]1(C)C(=O)O [Example 87] | ≥ 6.10 | 155 to 158 °C | ≥ 7.10
CC1(C)[C@@H](C(=O)N[C@@H](Cc2ccc(NC(=O)c3ccccn3)cc2)C(=O)O)CC[C@@]1(C)C(=O)O [Example 77] | 5.30 to 6.10 | 102 to 104 °C | 6.30 to 7.10
CC1(C)[C@@H](C(=O)N[C@@H](Cc2ccc(NC(=O)c3cccc(C(=O)c4ccccc4)c3)cc2)C(=O)O)CC[C@@]1(C)C(=O)O [Example 89] | 5.30 to 6.10 | 190 to 193 °C | 6.30 to 7.10
Cc1ccc(S(=O)(=O)Nc2ccc(C[C@H](NC(=O)[C@H]3CC[C@@](C)(C(=O)O)C3(C)C)C(=O)O)cc2)cc1 [Example 150] | 5.30 to 6.10 | 220 to 223 °C | 6.00 to 6.30
CC1(C)[C@@H](C(=O)N[C@@H](Cc2ccc(NC(=O)c3cc(C(F)(F)F)ccc3C(F)(F)F)cc2)C(=O)O)CC[C@@]1(C)C(=O)O [Example 104] | ≥ 6.10 | 148 to 150 °C | ≥ 7.10
CC1(C)[C@@H](C(=O)N[C@@H](Cc2ccc(NC(=O)c3ccc(Cl)c(Cl)c3)cc2)C(=O)O)CC[C@@]1(C)C(=O)O [Example 114] | ≥ 6.10 | 155 to 157 °C | 6.30 to 7.10
CC1(C)[C@@H](C(=O)N[C@@H](Cc2ccc(NC(=O)c3ccccc3C(F)(F)F)cc2)C(=O)O)CC[C@@]1(C)C(=O)O [Example 108] | ≥ 6.10 | 180 to 183 °C | ≥ 7.10
CC(C)COC(=O)Nc1ccc(C[C@H](NC(=O)[C@H]2CC[C@@](C)(C(=O)O)C2(C)C)C(=O)O)cc1 [Example 141] | 5.30 to 6.10 | 125 to 128 °C | 6.00 to 6.30
CC1(C)[C@@H](C(=O)N[C@@H](Cc2ccc(NC(=O)c3ccccc3F)cc2)C(=O)O)CC[C@@]1(C)C(=O)O [Example 132] | 5.30 to 6.10 | 117 to 120 °C | 6.30 to 7.10
CC1(C)[C@@H](C(=O)N[C@@H](Cc2ccc(OCc3c(Cl)cccc3Cl)cc2)C(=O)O)CC[C@@]1(C)C(N)=O [Example 155, (1S-cis)-N-[[3-(Aminocarbonyl)-2,2,3-trimethylcyclopentyl]carbonyl]-O-[(2,6-dichlorophenyl)methyl]-L-tyrosine] | 5.00 to 5.30 | 102 to 104 °C | 6.00 to 6.30
CC1(C)[C@@H](C(=O)N[C@@H](Cc2ccc(NC(=O)c3ccccc3N)cc2)C(=O)O)CC[C@@]1(C)C(=O)O [Example 144] | 5.30 to 6.10 | 195 to 198 °C | 6.30 to 7.10
CC1(C)[C@@H](C(=O)N[C@@H](Cc2ccc(NC(=O)c3ccccc3Br)cc2)C(=O)O)CC[C@@]1(C)C(=O)O [Example 112] | ≥ 6.10 | 156 to 158 °C | ≥ 7.10
CC1(C)[C@@H](C(=O)N[C@@H](Cc2ccc(NC(=O)c3ccccc3Cl)cc2)C(=O)O)CC[C@@]1(C)C(=O)O [Example 120] | 5.30 to 6.10 | 143 to 145 °C | 6.30 to 7.10
CC1(C)[C@@H](C(=O)N[C@@H](Cc2ccc(NC(=O)c3cccnc3Cl)cc2)C(=O)O)CC[C@@]1(C)C(=O)O [Example 208, (1S-cis)-N-[(3-Carboxy-2,2,3-trimethylcyclopentyl)carbonyl]-4-[[(2-chloro-3-pyridinyl)carbonyl]amino]-L-phenylalanine] | ≥ 6.10 | 172 to 174 °C | 6.30 to 7.10
CC1(C)[C@@H](C(=O)N[C@@H](Cc2ccc(NC(=O)c3ccc(-c4ccccc4)cc3)cc2)C(=O)O)CC[C@@]1(C)C(=O)O [Example 116] | ≥ 6.10 | 162 to 165 °C | ≥ 7.10
CC1(C)[C@@H](C(=O)N[C@@H](Cc2ccc(NC(=O)c3cc(Br)ccc3Br)cc2)C(=O)O)CC[C@@]1(C)C(=O)O [Example 97] | ≥ 6.10 | 170 to 173 °C | ≥ 7.10
CC1(C)[C@@H](C(=O)N[C@@H](Cc2ccc(NC(=O)c3ccccc3)cc2)C(=O)O)CC[C@@]1(C)C(=O)O [Example 85] | 5.00 to 5.30 | 145 to 148 °C | 6.30 to 7.10

Compound | pIC50 [1] | melting point | pIC50 [2]
COc1ccccc1C(=O)Nc1ccc(C[C@H](NC(=O)[C@H]2CC[C@@](C)(C(=O)O)C2(C)C)C(=O)O)cc1 [Example 95] | 5.30 to 6.10 | 140 to 143 °C | 6.30 to 7.10
CC1(C)[C@@H](C(=O)N[C@@H](Cc2ccc(O)c(NC(=O)c3c(Cl)cccc3Cl)c2)C(=O)O)CC[C@@]1(C)C(=O)O [Example 61] | 5.30 to 6.10 | 168 to 171 °C | 6.30 to 7.10
CC1(C)[C@@H](C(=O)N[C@@H](Cc2ccc(NC(=O)c3ccc(Cl)nc3Cl)cc2)C(=O)O)CC[C@@]1(C)C(=O)O [Example 209, (1S-cis)-N-[(3-Carboxy-2,2,3-trimethylcyclopentyl)carbonyl]-4-[[(2,6-dichloro-3-pyridinyl)carbonyl]amino]-L-phenylalanine] | ≥ 6.10 | 246 to 247 °C | ≥ 7.10
Cc1cccc(C)c1C(=O)Nc1ccc(C[C@H](NC(=O)[C@H]2CC[C@@](C)(C(=O)O)C2(C)C)C(=O)O)cc1 [Example 81] | ≥ 6.10 | 195 to 198 °C | 6.30 to 7.10
CC1(C)[C@@H](C(=O)N[C@@H](Cc2ccc(NC(=O)c3cccc4c3Cc3ccccc3-4)cc2)C(=O)O)CC[C@@]1(C)C(=O)O [Example 136] | 5.00 to 5.30 | 160 to 163 °C | 6.00 to 6.30
CC1(C)[C@@H](C(=O)N[C@@H](Cc2ccc(NC(=O)c3c(F)cccc3F)cc2)C(=O)O)CC[C@@]1(C)C(=O)O [Example 83] | ≥ 6.10 | 150 to 152 °C | ≥ 7.10
CC1(C)[C@@H](C(=O)N[C@@H](Cc2ccc(NC(=O)c3ccco3)cc2)C(=O)O)CC[C@@]1(C)C(=O)O [Example 130] | 5.30 to 6.10 | 158 to 161 °C | 6.30 to 7.10
CC1(C)[C@@H](C(=O)N[C@@H](Cc2ccc(NC(=O)c3cccc([N+](=O)[O-])c3)cc2)C(=O)O)CC[C@@]1(C)C(=O)O [Example 91] | 5.30 to 6.10 | 146 to 149 °C | ≥ 7.10
CC1(C)[C@@H](C(=O)N[C@@H](Cc2ccc(OCC3CCCCC3)cc2)C(=O)O)CC[C@@]1(C)C(=O)O [Example 13] | 5.00 to 5.30 | 102 to 105 °C | 6.00 to 6.30
COc1nc(Cl)ccc1C(=O)Nc1ccc(C[C@H](NC(=O)[C@H]2CC[C@@](C)(C(=O)O)C2(C)C)C(=O)O)cc1 [Example 210, (1S-cis)-N-[(3-Carboxy-2,2,3-trimethylcyclopentyl)carbonyl]-4-[[(2-methoxy-6-chloropyridin-3-yl)carbonyl]-amino]-L-phenylalanine] | ≥ 6.10 | 128 to 131 °C | ≥ 7.10
CC1(C)[C@@H](C(=O)N[C@@H](Cc2ccc(NC(=O)c3ccccc3I)cc2)C(=O)O)CC[C@@]1(C)C(=O)O [Example 110] | ≥ 6.10 | 162 to 165 °C | ≥ 7.10
CC1(C)[C@@H](C(=O)N[C@@H](Cc2ccc(NC(=O)Cc3ccccc3)cc2)C(=O)O)CC[C@@]1(C)C(=O)O [Example 121] | 5.30 to 6.10 | 240 to 242 °C | 6.00 to 6.30
Cc1ccccc1C(=O)Nc1ccc(C[C@H](NC(=O)[C@H]2CC[C@@](C)(C(=O)O)C2(C)C)C(=O)O)cc1 [Example 142] | 5.30 to 6.10 | 152 to 155 °C | 6.30 to 7.10
CC1(C)[C@@H](C(=O)N[C@@H](Cc2ccc(NC(=O)c3ccc4ccccc4c3)cc2)C(=O)O)CC[C@@]1(C)C(=O)O [Example 124] | 5.30 to 6.10 | 141 to 143 °C | 6.30 to 7.10
Cc1cccc(Cl)c1C(=O)Nc1ccc(C[C@H](NC(=O)[C@H]2CC[C@@](C)(C(=O)O)C2(C)C)C(=O)O)cc1 [Example 106] | ≥ 6.10 | 165 to 168 °C | ≥ 7.10
CC1(C)[C@@H](C(=O)N[C@@H](Cc2ccc(NC(=O)c3ccc(Cl)cc3)cc2)C(=O)O)CC[C@@]1(C)C(=O)O [Example 128] | 5.30 to 6.10 | 185 to 188 °C | 6.30 to 7.10
CC1(C)[C@@H](C(=O)N[C@@H](Cc2cn(Cc3ccccc3)cn2)C(=O)O)CC[C@@]1(C)C(=O)O [Example 29] | 5.00 to 5.30 | 258 to 259 °C (dec.) | 6.00 to 6.30
